# Results from patent US4147767A, “Albumin medicament carrier system” (priority 1977, dated 1979).
# Tested on: L-676 mouse embryo fibroblasts
# Assay: Mouse L-Cell growth inhibition test
# Assay type: cell-based
# Conditions: 72 hours
# Protocol: L-676 mouse embryo fibroblasts were grown and maintained in liquid shake cultures of Swims-67G medium fortified by the addition of 5% fetal calf serum and supplemented with 1%, 200 millimolar glutamine.
# Free drugs (without a carrier) used as controls were solubilized in either sterile distilled water or acetone and then added to the growth medium.
# Drug containing HSA spherules were resuspended in growth medium. A sonifying water bath was employed to aid in suspension.
# A 10% (v/v) inoculum of L-cells was employed in a final volume of 20 ml of growth medium containing suspended drug-containing microspheres or free control drug. […] All tests were performed in duplicate.
SMILES,% L-Cell Inhibition (50 micrograms drug/ml) [%],% L-Cell Inhibition (1 microgram drug/ml) [%],% L-Cell Inhibition (10 micrograms drug/ml) [%],% L-Cell Inhibition (25.0 μg drug/ml) [%],% L-Cell Inhibition (100 micrograms drug/ml) [%]
Sc1ncnc2nc[nH]c12 [6-Mercaptopurine],94,–,–,–,–
Nc1nc2nc[nH]c2c(=S)[nH]1 [6-Thioguanine],92,65,88,–,–
CS(=O)(=O)OCCCCOS(C)(=O)=O [Busulfan],–,–,–,69,–
O=C(O)CCCc1ccc(N(CCCl)CCCl)cc1 [Chlorambucil],97,0,68,–,–
COc1cc2c(c(OC)c1OC)-c1ccc(OC)c(=O)cc1[C@@H](NC(C)=O)CC2 [Colchicine],–,91,99,–,–
CC(=O)OCC(=O)[C@@]1(O)CC[C@H]2[C@@H]3CCC4=CC(=O)CC[C@]4(C)[C@H]3[C@@H](O)C[C@@]21C [Hydrocortisone Acetate],73,0,0,–,88
NC(=O)NO [Hydroxyurea],–,0,22,–,–
"O=c1[nH]cc(F)c(=O)[nH]1 [Pure 5-fluorouracil, 5-fluorouracil]",93,67,88,–,93
